In patent publication US20120232058A1, “SUBSTITUTED PYRIDINE DERIVATIVES AND THEIR MEDICAL USE” (NEUROSEARCH A/S, priority 2009, published 2012):

How the values were obtained:
human Kv7.2+3 [1] = target: T1, human Kv7.2+3 (Homo sapiens, UniProt O43525+O43526); assay: FLIPR-based thallium influx characterization of Kv7.2+3 modulators; assay type: cell-based; set-up: expressed in transfected cells; host or cells: HEK293; settings: for EC50: HEK293 cells over-expressing human Kv7.2+3, Tl+ influx, relative to retigabine control responses; for Efficacy: maximal response relative to the reference (retigabine) response
Method: This experiment determines the ability of a test compound to modulate the activity of Kv7.2+3 channels heterologously expressed in human HEK293 cells. The ability is determined relative to retigabine. The activity is determined using a standard thallium (I) sensitive assay, e.g. using a fluorometric method in a Fluorescent Image Plate Reader (FLIPR) as described below in more detail.
Full concentration/response curves are generated and EC50 values are calculated based on max values. EC50 values (Effective Concentration) represent the concentration of the test substance, at which 50% of the channel activity is obtained when compared to retigabine control responses. Maximal response determined relative to the reference (retigabine) response is calculated.
Human HEK293 cells over-expressing human Kv7.2+3 are grown in culture medium (DMEM supplemented with 10% foetal bovine serum), in polystyrene culture flasks ([…]) in a humidified atmosphere of 5% CO2 in air, at 37° C. Cell confluence should be 80-90% on day of plating. Cells are rinsed with 4 ml of PBS (phosphate buffered saline) and incubated 2 min with 1 ml of Trypsin-EDTA. After addition of 25 ml of culture medium cells are re-suspended by trituration with a 25 ml pipette.
The cells are seeded at a density of ˜3×10^6 cells/ml (25 μl/well) in black-walled, clear bottom, 384-well plates pre-treated with 0.01 g/I poly-D-lysin (20 μl/well for 30 min). Plated cells were allowed to proliferate for 24 h before loading with dye.
BTC-AM ([…], Invitrogen) is added 25.5 μl DMSO. The BTC-AM stock solution (2 mM) is diluted to a final concentration of 2 μM in Cl^− free assay buffer (in mM: 140 Na^+-gluconate, 2.5 K^+-gluconate, 6 Ca2^+-gluconate, 1 Mg^2+ gluconate, 5 glucose, 10 HEPES, pH 7.3) containing 2 μM ouabain, 2 mM amaranth and 1 mM tartrazine. […]
After the loading period, the TI^+-sensitive BTC fluorescence signal is measured over time using a FLIPR.
• Temperature: Room temp. • First addition: 12 μl test or control compound after 15 sec at a rate of 30 μl/sec and starting height of 20 μl • Second addition: 12 μl stimulus buffer (CI^− free assay buffer supplemented with 1 mM TI2SO4, 5 mM K2SO4 as well as the quenchers amaranth (2 mM) and tartrazine (1 mM)) is added after an additional 3 minutes at a rate of 30 μl/sec and starting height of 30 μl • Reading intervals: First sequence—3 sec×5, 2 sec×24 and 5 sec×25 Second sequence—1 sec×5, 2 sec×24 and 5 sec×36 Addition plates (compound plate and stimulus plate) are placed in positions 2 and 3, respectively. […] Fluorescence obtained after stimulation is corrected for the mean basal fluorescence (in Cl^− free assay buffer). […]

human Kv7.2+3 [2] = target: T1, human Kv7.2+3; assay: patch-clamp, HEK293 cell lines stably expressing human Kv7.2+3 channels; assay type: cell-based; set-up: expressed in transfected cells; settings: −30 mV, 20 ms, baseline current defined as 100%
From the text: The effect obtained by these channel activators is described as a percentage increase in baseline current at a given concentration. The baseline current is defined as 100%, and an increase in current is expressed relative to this, i.e. an increase from 1 nA to 1.2 nA is reported as 120%.

| EC50 (human Kv7.2+3 [1]) [µM] | Efficacy (human Kv7.2+3 [1]) [%] | IK (%) (human Kv7.2+3 [2]; conc. 0.3 μM) | IK (%) (human Kv7.2+3 [2]; conc. 0.03 μM) | SMILES |
| --- | --- | --- | --- | --- |
| 4.1 | 102 | 180 |  | Cc1ccoc1C(=O)Nc1c(C)cc(N2CCCOCC2)nc1C [Compound 1.2, 3-Methyl-furan-2-carboxylic acid(2,4-dimethyl-6-[1,4]oxazepan-4-yl-pyridin-3-yl)-amide] |
| 0.034 | 82 | 249 | 177 (n = 2) % | Cc1ccoc1C(=O)Nc1c(C)cc(N2CCCOCC2)nc1C(C)C [Compound 1.1, 3-Methyl-furan-2-carboxylic acid(2-isopropyl-4-methyl-6-[1,4]oxazepan-4-yl-pyridin-3-yl)-amide] |
